Target: Serotonin (5-HT) receptor
Assay: Competitive antagonist activity at 5-HT serotonin receptor in Sprague-Dawley rat stomach fundus model assessed as inhibition of 5-HT-induced contractile response

COc1ccc(OC)c(CCCN(C)C)c1
pA2: 5.45
